# Test results taken from patent publication US20050112066A1, “Complexes of cyclic polyaza chelators with cations of alkaline earth metals for enhanced biological activity” (CONCAT LP, a California Limited Partnership, priority 2003, published 2005).
# Where two headings read alike, the source gives them in different places.
# Columns and labels:
# Sprague Dawley rats = assay: subacute toxicity, repeated intravenous doses to rats; format: in vivo; conditions: 0.05 millimoles per kg i.v. on 10 days
# Text: Ten male Sprague Dawley rats 29 days old and weighing between 73.4 and 87.8 grams at the beginning of the experiment were randomized, employing the block stratification method, into two groups consisting of five rats each. On each of days 1, 2, 3, 6, 7, 8, 9, 10,13 and 14 of the experiment one set of rats received an intravenous dose of N,N′,N″-tri(dihydroxyphosphoryl methyl)-1,4,7-triazacyclononane equal to 0.05 millimoles per kg of initial body weight (experimental group) while the other group received an equivalent volume of normal saline solution. The weights of the animals were recorded three times per week and the animals were sacrificed on the 28th day, major organs removed and weighed and tissues removed for microscopic examination.
# [1] = room temperature; cited from earlier work
# [2] = system: HFF (human foreskin fibroblasts); assay: toxicity toward nonproliferating mammalian cells in vitro; format: cell-based; conditions: 0.3 mM; mature, nonreplicating HFF cultures in maintenance media; five-day period of observation
# Experimental: This example illustrates the relatively low toxicity of a representative example of the chelators of this invention toward nonproliferating mammalian cells in vitro.
# To mature, nonreplicating cultures of HFF (human foreskin fibroblasts) kept in maintenance media was added N,N′,N″-tris(dihydroxyphosphorylmethyl)-1,4,7-triazacyclononane at a concentration of 0.3 mM. No effect on the resting cells was observed over a five-day period of observation.
# Corynebacterium Xerosis = assay: minimum inhibitory concentration against skin bacteria; format: cell-based
# Experimental: This effect is unexpected since the presence of cations other than those of first transition series elements would be expected to inhibit the rate and extent of complexation of the first transition series elements by both the cyclic and linear chelators, albeit to differing degrees.
# Two chelators were compared in terms of their minimum inhibitory concentrations (MIC) against the common skin bacteria Corynebacterium Xerosis in media containing either 3.7 mg/L or 137 mg/L of Ca(II). The two chelators were N,N′,N″-tri(dihydroxyphosphoryl methyl)-1,4,7-triazacyclononane (within the scope of the present invention) and diethylene triamine pentaacetic acid (DTPA) (outside the scope of the present invention). The MIC for the triazacyclononane was 8 μg/mL in medium containing 3.7 mg/L of Ca(II), and 5 μg/mL in medium containing 137 mg/L of Ca(II).
# Laboratory mice = assay: acute in vivo toxicity, single intravenous dose to mice; conditions: 3.0 mM/kg single intravenous dose
# Experimental: This example illustrates the low in vivo toxicity of a representative example of the chelators of this invention upon administration to mice.
# Laboratory mice were treated by the intravenous administration of 3.0 mM/kg intravenously of the sodium salt of N,N′,N″-tris(dihydroxyphosphoryl-methyl)-1,4,7-triazacyclononane as a single intravenous dose. […] This in vivo LD50 toxicity dose results in an instantaneous in vivo concentration which is orders of magnitude greater than the dose of this agent which inhibits mammalian cell replication in vitro (0.009 mM/L).
# [3] = system: mammalian cell replication; assay: inhibition of mammalian cell replication in vitro; format: cell-based
structure (smiles),measurement,setting,value
"O=P(O)(O)CN1CCN(CP(=O)(O)O)CCN(CP(=O)(O)O)CC1 [N,N′,N″-Tris-(dihydroxyphosphorylmethyl)-1,4,7-triazacyclononane]",differences between tissues upon microscopic examination of major organs vs control group,Sprague Dawley rats; necropsy on the 28th day,no differences
same,difference in weight or rate of weight gain vs control group,Sprague Dawley rats; period of injections and two-week post-injection period,no statistically significant difference
same,differences in weights of major organs vs control group,Sprague Dawley rats; sacrificed on the 28th day,no differences
same,time to achieve equilibrium with the cations,[1],many months
same,effect on the resting cells,[2],No effect
same,MIC,"Corynebacterium Xerosis; Corynebacterium xerosis, medium containing 3.7 mg/L of Ca(II), read-out: MIC",8 µg/mL
same,MIC,"Corynebacterium Xerosis; Corynebacterium xerosis, medium containing 137 mg/L of Ca(II), read-out: MIC",5 µg/mL
"O=C(O)CN(CCN(CC(=O)O)CC(=O)O)CCN(CC(=O)O)CC(=O)O [DTPA, diethylene triamine pentaacetic acid, reference compound]",MIC,Corynebacterium Xerosis; medium containing 3.7 mg/L of Ca(II),36 µg/mL
same,MIC,Corynebacterium Xerosis; medium containing 137 mg/L of Ca(II),320 µg/mL
"O=P([O-])([O-])CN1CCN(CP(=O)(O)O)CCN(CP(=O)(O)O)CC1.[Na+].[Na+] [sodium salt of N,N′,N″-tris(dihydroxyphosphoryl-methyl)-1,4,7-triazacyclononane]",mice surviving for over 14 days,Laboratory mice,Over 50%
same,dose which inhibits mammalian cell replication in vitro,[3],0.009 mM/L
